# Data published in patent US8889677B2, “Substituted triazoles useful as mGlu5 receptor modulators” (Boehringer Ingellheim International GmbH, priority 2012, dated 2014).
# Target: T1, human recombinant mGluR5 (Homo sapiens, UniProt P41594)
# T1 construct: expressed in transfected cells; host or cells: HEK 293 cell line cultured with tetracycline, hygromycin and geneticin; tetracycline removed 3-7 days before the assay
# Test: positive modulation of mGluR5, calcium based FLIPR assay in HEK 293 cells
# Conditions: HEK 293 cell line expressing human recombinant mGluR5; EC50 of the modulation of the glutamate response (glutamate approx. 5% basal stimulation); peak height of Ca release fluorescence signal
# How it was run: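 Potentiation EC50 derived by nonlinear fit of peak calcium fluorescence after a near-5%-maximal glutamate challenge, following 5 min compound exposure (intrinsic activity also recorded). Dye-loaded recombinant human mGluR5 HEK 293 cells in Ringer solution pH 7.4, 1% DMSO; plate controls were vehicle (100%) and 10 μM CDPPB (200%).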
# T1 sequence (P41594 21-1212): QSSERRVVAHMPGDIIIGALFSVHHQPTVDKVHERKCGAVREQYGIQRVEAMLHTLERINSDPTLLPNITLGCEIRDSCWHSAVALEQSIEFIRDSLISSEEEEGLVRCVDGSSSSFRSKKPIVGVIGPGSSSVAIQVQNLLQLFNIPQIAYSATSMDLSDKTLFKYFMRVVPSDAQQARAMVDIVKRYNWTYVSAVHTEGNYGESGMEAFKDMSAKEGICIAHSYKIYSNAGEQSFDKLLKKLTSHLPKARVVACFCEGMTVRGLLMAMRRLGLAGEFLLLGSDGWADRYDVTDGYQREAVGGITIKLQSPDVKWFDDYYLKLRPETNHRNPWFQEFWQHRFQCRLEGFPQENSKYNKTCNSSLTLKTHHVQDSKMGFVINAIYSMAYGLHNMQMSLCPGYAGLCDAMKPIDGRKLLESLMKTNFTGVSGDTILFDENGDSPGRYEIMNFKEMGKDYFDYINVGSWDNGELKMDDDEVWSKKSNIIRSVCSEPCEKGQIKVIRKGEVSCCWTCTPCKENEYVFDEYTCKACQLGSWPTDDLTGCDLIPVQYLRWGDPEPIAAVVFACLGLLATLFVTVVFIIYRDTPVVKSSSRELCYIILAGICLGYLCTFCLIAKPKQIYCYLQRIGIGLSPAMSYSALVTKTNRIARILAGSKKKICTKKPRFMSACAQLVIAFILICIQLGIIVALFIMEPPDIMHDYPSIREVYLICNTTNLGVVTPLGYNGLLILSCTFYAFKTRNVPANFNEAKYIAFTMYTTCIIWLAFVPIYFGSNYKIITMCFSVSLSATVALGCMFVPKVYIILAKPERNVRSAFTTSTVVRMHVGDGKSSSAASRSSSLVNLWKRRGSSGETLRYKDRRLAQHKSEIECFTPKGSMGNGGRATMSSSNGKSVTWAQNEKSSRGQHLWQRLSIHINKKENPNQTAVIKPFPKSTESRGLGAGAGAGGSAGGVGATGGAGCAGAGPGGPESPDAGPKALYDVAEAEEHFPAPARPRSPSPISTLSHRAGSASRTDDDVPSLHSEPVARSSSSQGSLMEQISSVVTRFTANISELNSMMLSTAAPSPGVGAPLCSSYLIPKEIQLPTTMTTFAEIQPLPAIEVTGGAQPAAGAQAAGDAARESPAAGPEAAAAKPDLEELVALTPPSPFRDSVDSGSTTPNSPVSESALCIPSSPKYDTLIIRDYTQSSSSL
row,SMILES,EC50 [nM]
1,O=C(Cn1nc(-c2ccc(F)cc2)nc1-c1ccc(F)cc1)N1CCN(c2cc(NC3CCC3)ncn2)CC1 [Example 07.08.20.],155
2,"O=C(Cn1nc(-c2ccc(F)cc2)nc1-c1ccc(F)cc1)N1CCN(c2ncccn2)CC1 [Example 07.01.01., 2-(3,5-Bis-(4-fluoro-phenyl)-(1,2,4)triazol-1-yl)-1-(4-pyrimidin-2-yl-piperazin-1-yl)-ethanone]",24
3,Cc1cc(-c2nc(C3CCCCC3)n(CC(=O)N3CCN(c4ncccn4)CC3)n2)ccc1F [Example 07.04.066.],101
4,N#Cc1cccc(-c2nc(-c3ccccc3)n(CC(=O)N3CCN(c4ncccn4)CC3)n2)c1 [Example 07.10.06.],164
5,COc1ccc(-c2nc(-c3ccc(F)cc3)n(CC(=O)N3CCN(c4cc(OC)ncn4)CC3)n2)cc1 [Example 07.04.034.],52
6,COc1cc(OC)nc(N2CCN(C(=O)Cn3nc(-c4ccc(F)cc4)nc3-c3ccc(F)cc3)CC2)n1 [Example 07.03.13.],224
7,"CN(CC1CCOC1)c1cc(N2CCN(C(=O)Cn3nc(-c4ccc(F)cc4)nc3-c3ccc(F)cc3)CC2)ncn1 (stereo not shown) [Example 07.08.01., 2-(3,5-bis-(4-fluoro-phenyl)-(1,2,4)triazol-1-yl)-1-(4-(6-(methyl-(tetrahydro-furan-3-ylmethyl)-amino)-pyrimidin-4-yl)-piperazin-1-yl)-ethanone]",201
8,Cc1ccnc(N2CCN(C(=O)Cn3nc(-c4ccc(F)c(C)c4)nc3CC(C)C)CC2)c1 [Example 07.04.105.],382
9,CCCCc1nc(-c2ccc(F)c(C)c2)nn1CC(=O)N1CCN(c2cc(C)ccn2)CC1 [Example 07.04.115.],208
10,COc1ccc(-c2nc(-c3ccccc3)n(CC(=O)N3CCN(c4ncccc4C(F)(F)F)CC3)n2)cc1OC [Example 07.02.23.],1910
11,O=C(Cn1nc(-c2ccc(F)cc2)nc1-c1ccc(F)cc1)N1CCN(c2cc3ccccc3cn2)CC1 [Example 07.04.005.],400
12,COc1ccc(-c2nc(-c3ccccc3)n(CC(=O)N3CCN(c4ccc(C)cn4)CC3)n2)cc1OC [Example 07.02.21.],451
13,O=C(Cn1nc(-c2ccc(F)cc2)nc1-c1ccc(F)cc1)N1CCN(c2cccc(F)c2)CC1 [Example 07.03.05.],469
14,CN(C)c1ccnc(N2CCN(C(=O)Cn3nc(-c4ccc(F)cc4)nc3-c3ccc(F)cc3)CC2)n1 [Example 07.03.16.],66
15,CCC(C)c1nc(-c2ccc(F)c(C)c2)nn1CC(=O)N1CCN(c2ncccn2)CC1 (stereo not shown) [Example 07.04.101.],294
16,O=C(Cn1nc(-c2ccc(F)cc2)nc1-c1ccc(F)cc1)N1CCN(c2cc(OCC3CCCO3)ncn2)CC1 (stereo not shown) [Example 07.09.02.],59
17,O=C(Cn1nc(-c2ccc(F)cc2)nc1-c1ccc(F)cc1)N1CCN(c2cc(NCc3ccccn3)ncn2)CC1 [Example 07.08.17.],286
18,CN1CCN(CCOc2cc(N3CCN(C(=O)Cn4nc(-c5ccc(F)cc5)nc4-c4ccc(F)cc4)CC3)ncn2)CC1 [Example 07.09.28.],523
19,COc1cccc(-c2nc(C(C)C)n(CC(=O)N3CCN(c4ncccn4)CC3)n2)c1 [Example 07.04.161.],1520
20,Cc1cc(-c2nc(CC(C)C)n(CC(=O)N3CCN(c4ccccn4)CC3)n2)ccc1F [Example 07.04.106.],387
21,O=C(Cn1nc(-c2ccc(F)cc2)nc1-c1ccc(F)cc1)N1CCN(c2cc(OCCN3CCOCC3)ncn2)CC1 [Example 07.09.07.],110
22,N#Cc1ccc(N2CCN(C(=O)Cn3nc(-c4ccc(F)cc4)nc3-c3ccc(F)cc3)CC2)nc1 [Example 07.04.11.],1570

row,SMILES,EC50 [nM]
1,COc1ccnc(N2CCN(C(=O)Cn3nc(-c4ccc(F)c(C)c4)nc3C3CCCC3)CC2)c1 [Example 07.04.110.],409
2,O=C(Cn1nc(-c2ccccc2)nc1-c1ccccc1)N1CCN(c2ncccn2)CC1 [Example 07.04.018.],200
3,O=C(Cn1nc(-c2ccc(F)cc2)nc1-c1ccc(F)cc1)N1CCN(c2ccccn2)CC1 [Example 07.01.02.],56
4,COCc1cccc(-c2nc(-c3ccccc3)n(CC(=O)N3CCN(c4ncccn4)CC3)n2)c1 [Example 07.10.08.],181
5,COc1ccc(-c2nc(-c3ccc(F)cc3)nn2CC(=O)N2CCN(c3ncc(Br)cn3)CC2)cc1 [Example 07.04.044.],88
6,COc1nccc(N2CCN(C(=O)Cn3nc(-c4ccc(F)cc4)nc3-c3ccc(F)cc3)CC2)n1 [Example 07.03.19.],440
7,O=C(Cn1nc(-c2ccc(F)cc2)nc1-c1ccc(F)cc1)N1CCN(c2ccc(Cl)cn2)CC1 [Example 07.04.12.],176
8,CN(CCO)c1cc(N2CCN(C(=O)Cn3nc(-c4ccc(F)cc4)nc3-c3ccc(F)cc3)CC2)ncn1 [Example 07.08.09.],332
9,Cc1cc(C#N)nc(N2CCN(C(=O)Cn3nc(-c4ccc(F)cc4)nc3-c3ccc(F)cc3)CC2)n1 [Example 07.03.15.],574
10,Cc1ccnc(N2CCN(C(=O)Cn3nc(-c4ccc(F)cc4)nc3CCc3ccccc3)CC2)c1 [Example 07.04.151.],560
11,COc1cccc(-c2nc(C3CCCCC3)n(CC(=O)N3CCN(c4cc(C)ccn4)CC3)n2)c1 [Example 07.04.052.],898
12,O=C(Cn1nc(-c2ccc(F)cc2)nc1C1CCCCC1)N1CCN(c2ncccn2)CC1 [Example 07.04.031.],661
13,CCc1nc(-c2ccc(F)c(C)c2)nn1CC(=O)N1CCN(c2cc(OC)ccn2)CC1 [Example 07.04.094.],991
14,O=C(Cn1nc(-c2ccc(F)cn2)nc1-c1ccc(F)cc1)N1CCN(c2ncccn2)CC1 [Example 07.04.140.],320
15,COC[C@@H](C)Oc1cc(N2CCN(C(=O)Cn3nc(-c4ccc(F)cc4)nc3-c3ccc(F)cc3)CC2)ncn1 [Example 07.09.14.],38
16,C=C(C)c1nc(-c2ccccc2)nn1CC(=O)N1CCN(c2ncccn2)CC1 [Example 07.10.27.],1470
17,Cc1cc(-c2nc(C3CCCCC3)n(CC(=O)N3CCN(c4ncc(Br)cn4)CC3)n2)ccc1F [Example 07.04.070.],318
18,O=C(Cn1nc(-c2ccc(F)cc2)nc1-c1ccc(F)cc1)N1CCN(c2cc(OC3CCCOC3)ncn2)CC1 (stereo not shown) [Example 07.09.09.],109
19,Cc1cc(-c2nc(C3CCCCC3C)n(CC(=O)N3CCN(c4ncccn4)CC3)n2)ccc1F (stereo not shown) [Example 07.04.135.],392
20,CN1CCN(c2cc(N3CCN(C(=O)Cn4nc(-c5ccc(F)cc5)nc4-c4ccc(F)cc4)CC3)ncn2)CC1 [Example 07.08.23.],1590
21,O=C(Cn1nc(-c2ccc(F)cc2)nc1-c1ccc(F)cc1)N1CCN(c2cc(N3CCCC3)ncn2)CC1 [Example 07.08.13.],343
22,COc1ccc(-c2nc(-c3ccc(F)cc3)n(CC(=O)N3CCN(c4ncc(Br)cn4)CC3)n2)cc1 [Example 07.04.036.],32

row,SMILES,EC50 [nM]
1,O=C(Cn1nc(-c2ccc(F)cc2)nc1-c1ccc(F)cc1)N1CCN(c2cc(NC3CCOCC3)ncn2)CC1 [Example 07.08.05.],510
2,O=C(Cn1nc(-c2ccc(F)cc2)nc1CCc1ccccc1)N1CCN(c2ncccn2)CC1 [Example 07.04.150.],323
3,N#Cc1ccnc(N2CCN(C(=O)Cn3nc(-c4ccc(F)cc4)nc3-c3ccc(F)cc3)CC2)c1 [Example 07.02.08.],36
4,COc1ccnc(N2CCN(C(=O)Cn3nc(-c4ccc(F)c(C)c4)nc3C3CCCCC3C)CC2)c1 (stereo not shown) [Example 07.04.136.],1220
5,COc1cc(N2CCN(C(=O)Cn3nc(-c4ccc(F)c(C)c4)nc3-c3ccccc3)CC2)ncn1 [Example 07.04.060.],55
6,O=C1CCCN1CCCOc1cc(N2CCN(C(=O)Cn3nc(-c4ccc(F)cc4)nc3-c3ccc(F)cc3)CC2)ncn1 [Example 07.09.27.],86
7,CCc1nc(-c2ccc(OC(F)F)cc2)nn1CC(=O)N1CCN(c2ncccn2)CC1 [Example 7.04.163],850
8,COc1cc(N2CCN(C(=O)Cn3nc(-c4ccc(F)c(C)c4)nc3C3CCCCC3)CC2)ncn1 [Example 07.04.065.],296
9,Cc1cc(-c2nc(C3CCCCC3)n(CC(=O)N3CCN(c4cccnn4)CC3)n2)ccc1F [Example 07.04.072.],257
10,O=C(Cn1nc(-c2ccc(F)cc2)nc1-c1ccc(F)cc1)N1CCN(c2ncccc2C(F)(F)F)CC1 [Example 07.02.02.],474
11,CN1CCN(CCCOc2cc(N3CCN(C(=O)Cn4nc(-c5ccc(F)cc5)nc4-c4ccc(F)cc4)CC3)ncn2)CC1 [Example 07.09.26.],252
12,COc1ccc(-c2nc(-c3ccccc3)n(CC(=O)N3CCN(c4cc(OC)ncn4)CC3)n2)cc1 [Example 07.04.152.],174
13,O=C(Cn1nc(-c2ccc(OC(F)F)cc2)nc1-c1ccccc1)N1CCN(c2ccccn2)CC1 [Example 7.04.164],22
14,COc1ccc(-c2nc(-c3ccccc3)n(CC(=O)N3CCN(c4ncccc4C#N)CC3)n2)cc1OC [Example 07.02.19.],494
15,N#CCc1ccc(-c2nc(-c3ccccc3)nn2CC(=O)N2CCN(c3ncccn3)CC2)cc1 [Example 07.10.21.],1500
16,CCc1nc(-c2ccc(F)c(C)c2)nn1CC(=O)N1CCN(c2ncccn2)CC1 [Example 07.04.092.],654
17,O=C(Cn1nc(-c2ccc(F)cc2)nc1-c1ccc(F)cc1)N1CCN(c2cnccn2)CC1 [Example 07.04.008.],117
18,CCOc1ccnc(N2CCN(C(=O)Cn3nc(-c4ccc(OC)cc4)nc3-c3ccccc3)CC2)c1 [Example 07.04.055.],101
19,COc1ccc(-c2nc(-c3ccc(F)cc3)n(CC(=O)N3CCN(c4cc(C)ccn4)CC3)n2)cc1 [Example 07.04.032.],39
20,O=C(Cn1nc(-c2ccc(F)cc2)nc1-c1ccc(F)cc1)N1CCN(c2cc(OCc3ccccn3)ncn2)CC1 [Example 07.09.13.],47
